This is an account of results in US12186332B2, “Methods for overcoming WNT/beta-catenin anti-cancer resistance in leukemia stem cells” (STOWERS INSTITUTE FOR MEDICAL RESEARCH, priority 2019, dated 2025).

What all share (type): in vivo, mouse
For assay [1], the system named is pS^552-β-catenin. The experiment in a line: FACS for pS552-β-catenin in populations from treated leukemic mice. The settings on record: [Low]DXR; 4 days post-treatment; LSCs. The protocol: Percent of LSC, HSPC or blast cell population expressing pS^552-β-catenin is indicated for each treatment. Numbers indicate mean±SD; n=3-5 per group.
For FACS analysis using PE-conjugated monoclonal anti-pS552-β-catenin antibody, cells were washed twice after cell surface staining, resuspended in 250ul of BD Fixation/Permeabilization® solution, incubated for 20 minutes at 4°, washed 2× with 1 ml of 1×BD Perm/Wash Buffer®, resuspended with 100 ul 1×BD Perm/Wash Buffer®, added […] anti-pS552-β-catenin antibody per 100 ul solution containing up to 3 million cells, incubated 2 hours on ice with rocking (resuspended every 15 minutes), washed 2 times and resuspended in PBS+2% FBS for analysis. BM from β-cat knockout mouse was harvested at 2-3 weeks post-knockout induction and stained alongside other test samples.

In assay [2] the test system is Wnt-signaling reporter activity (TCF/Lef:H2B-GFP). The experiment in a line: TCF/Lef:H2B-GFP reporter mice. Conditions: low-dose DXR (legend: [Low]nanoDXR, 3 hours post-injection). From the text: Percent of TCF/Lef:H2B-GFP^+ cells for each population are indicated.
In assay [3] the test system is immune checkpoint (IC) and Wnt target gene loci. In words: ATAC-seq chromatin accessibility in LSCs and blast cells. The settings on record: [Low]DXR. From the text: Inhibitory IC gene loci are highlighted (blue dots).
Cells were sorted from BM pooled from 20 leukemia mice treated with [Low]DXR and 8 leukemia mice treated with vehicle control at 15-30 k/replicate.
FIG. 4M is metagene analysis of LSCs showing chromatin accessibility near the transcriptional start site (TSS) in immune-checkpoint gene loci (listed) compared with all loci showing significant changes. Gene synonyms are listed here in parentheses Hvem (Tnfrsf14), Gal-9 (Lgals9), Ox401 (Tnfsf4), Tnfsf7 (Cd70), B7-H2 (Icosl), B7-H3 (Cd276), B7-H4 (Vtcn1), Pd1 (Pdcd1), Tnfrsf7 (Cd27), Tim3 (Havcr2), Ox40 (Tnfrsf4).
Cells were sorted from BM pooled from 20 leukemia mice treated with [Low]DXR and 8 leukemia mice treated with vehicle control. Experiment was repeated 1 time with similar results.
ATAC-seq was performed in LSCs and blast cells following the protocol described in Buenrostro et al., ATAC-seq: A Method for Assaying Chromatin Accessibility Genome-Wide. Curr Protoc Mol Biol. 2015 Jan. 5,109:21.29.1-9, the entirety of which is incorporated herein by reference. Cells were sorted from BM pooled from 20 leukemia mice treated with [Low]DXR and 8 leukemia mice treated with vehicle control at 15-30 k/replicate.
Collected cells were subject to transposition reaction and purification. In brief, 30,000 FACS-sorted blast cells were washed using 50 μl cold 1×PBS and centrifuged at 500 g for 5 min in a pre-chilled (4° C.) fixed-angle centrifuge. Cells were lysed using cold lysis buffer (10 mM Tris-HCl, pH 7.4, 10 mM NaCl, 3 mM MgCl2 and 0.1% IGEPAL CA-630). Following the lysis, the pellet was resuspended in the transposase reaction mix. The transposition reaction mix contains 25 μl TD (2× reaction buffer), 2.5 μl TDE1 (Nextera Tn5 Transposase) and 22.5 μl Nuclease Free H2O. Resuspended nuclei in the transposition reaction mix. Incubated the transposition reaction at 37° C. for 30 min. Immediately following transposition, purification was performed by using a Qiagen MinElute PCR Purification Kit. Eluted transposed DNA in 10 μl Elution Buffer (10 mM Tris buffer, pH 8). Transposed DNA fragments were amplified by PCR. The PCR mixture contains 10 μl transposed DNA, 10 μl Nuclease Free H2O, 2.5 μl 25 μM Custom Nextera PCR Primer 1, 2.5 μl 25 μM Custom Nextera PCR Primer 2 (Contains Barcode) and 25 μl NEBNext High-Fidelity 2×PCR Master Mix. The thermal cycle is as follows: 1 cycle of 72° C. for 5 min, 98° C. for 30 sec, 5 cycles of 98° C. for 10 sec, 63° C. for 30 sec, 72° C. for 1 min. To reduce GC and size bias in PCR, the appropriate number of PCR cycles is determined using qPCR. To run a qPCR side reaction, combine the following in qPCR compatible consumables: 5 μl of previously PCR amplified DNA, 4.41 μl Nuclease Free H2O, 0.25 μl 25 μM Customized Nextera PCR Primer 1, 0.25 μl 25 μM Customized Nextera PCR Primer 2, 0.09 μl 100×SYBR Green I, 5 μl NEBNext High-Fidelity 2×PCR Master Mix. Using a qPCR instrument, cycle as follows: 1 cycle of 98° C. for 30 sec, 20 cycles of 98° C. for 10 sec, 63° C. for 30 sec, 72° C. for 1 min. To calculate the additional number of cycles needed, plot linear Rn versus cycle and determine the cycle number that corresponds to […] fluorescent intensity. Run the remaining 45 μl PCR reaction to the cycle number determined by qPCR. Cycle as follows: 1 cycle of 98° C. for 30 sec, N cycles (determined using qPCR) of 98° C. for 10 sec, 63° C. for 30 sec, 72° C. for 1 min.

`COc1cccc2c1C(=O)c1c(O)c3c(c(O)c1C2=O)C[C@@](O)(C(=O)CO)C[C@@H]3O[C@H]1C[C@H](N)[C@H](O)[C@H](C)O1` [DXR, doxorubicin]: the pS552-β-catenin expression result in assay [1] is listed as “substantially reduced”. Further, in assay [2], the Wnt-signaling reporter activity result is listed as “significantly inhibits”. The “IC loci with increased accessibility” value was found to be 3 loci in assay [3] (LSCs) and 10 in assay [3] (blast cells). Moreover, the “IC loci with reduced accessibility” value in assay [3] (LSCs) is reported as 13 loci; in assay [3] (blast cells), 4. Besides, the “accessibility in the promoter regions of Wnt target genes in LSCs” value in assay [3] (not in blast cells) is reported as “reduced”.
